The source of these data is patent publication US8629164B2, “Inhibitors of NF-κB” (Profectus Biosciences, Inc., priority 2009, dated 2014).

Series [1] concerns collagen-induced arthritis. The series can be described thus: Mouse model of collagen-induced rheumatoid arthritis (CIA).
Source text: Male DBA mice developed arthritis by injecting bovine CII collagen in tails at day 1 and day 21.
Series [2] has as its system human peripheral blood mononuclear cells (hPBMCs). Nature of the series: Cytotoxicity to hPBMCs (CellTiter-Glo). In kind it is cell-based. Conditions: hPBMCs, at 40 μM. How it is done:
Human peripheral blood mononuclear cells (hPBMCs) were treated with example 1 or DHMEQ and the percentage of viable cells was assessed 24 hours post drug treatment. The graph represents the mean±the standard deviation of three replicate experiments.
The cytotoxicity profile of the compound of Example 1. The cytotoxicity of the compound of Example 1 was determined for human peripheral blood mononuclear cells (hPBMCs). As with the activity assay, the hPBMCs were treated with 0, 0.2, 1, 10, 20 and 40 μM of the compound of Example 1 for 2 hours, and then induced with 20 ng/ml TNF-α for 48 hours. The number of viable cells was determined using CellTiter-Glo luminescent cell viability assay (Promega (cat #G7573)). […] The selectivity index (the ratio of cytotoxicity CC50 to inhibitory IC50) is assigned to the compound of Example 1.
(In general: ATP-based viability assays read luminescence as a measure of living cells.)

A further series concerns RelA/p65. Nature of the series: Immunostaining of RelA/p65 nuclear translocation in Hek293 cells. Type of series: cell-based. To be noted: TNFα 20 ng/ml, 30 minutes. Here is the method:
(§1) Specifically, the compound of Example 1 causes the accumulation of activated RelA/p65 in the cytoplasm of cells. Hek293 cells were treated with DHMEQ or the compound of Example 1 (as indicated) with TNFα (20 ng/ml) for 30 minutes. After incubation, the cells were immunostained with anti-p65 antibody (C-20) antibody (Santa Cruz Biotechnology, Santa Cruz, Calif.) and nuclei were counterstained with Dapi. Images were captured using an AE31 inverted microscope with epifluorescence illuminator (Motic, Xiamen, China) and a ProgRes C3 camera (JENOPTIK, Jena, Germany). Individual images of p65 and corresponding nuclei were merged for final figure. Control treated cells (DMSO only) show nuclear accumulation of p65 upon TNFα stimulation.
as §1, with “Immunostaining of RelA/p65. The” for “Specifically, the”, “incubation,” for “incubation, the”, “figure.” for “figure. Control treated cells (DMSO only) show nuclear accumulation of p65 upon TNFα stimulation.”

Another series deals with T1, RelB (Homo sapiens, UniProt Q01201).
T1 sequence (Q01201 1-579): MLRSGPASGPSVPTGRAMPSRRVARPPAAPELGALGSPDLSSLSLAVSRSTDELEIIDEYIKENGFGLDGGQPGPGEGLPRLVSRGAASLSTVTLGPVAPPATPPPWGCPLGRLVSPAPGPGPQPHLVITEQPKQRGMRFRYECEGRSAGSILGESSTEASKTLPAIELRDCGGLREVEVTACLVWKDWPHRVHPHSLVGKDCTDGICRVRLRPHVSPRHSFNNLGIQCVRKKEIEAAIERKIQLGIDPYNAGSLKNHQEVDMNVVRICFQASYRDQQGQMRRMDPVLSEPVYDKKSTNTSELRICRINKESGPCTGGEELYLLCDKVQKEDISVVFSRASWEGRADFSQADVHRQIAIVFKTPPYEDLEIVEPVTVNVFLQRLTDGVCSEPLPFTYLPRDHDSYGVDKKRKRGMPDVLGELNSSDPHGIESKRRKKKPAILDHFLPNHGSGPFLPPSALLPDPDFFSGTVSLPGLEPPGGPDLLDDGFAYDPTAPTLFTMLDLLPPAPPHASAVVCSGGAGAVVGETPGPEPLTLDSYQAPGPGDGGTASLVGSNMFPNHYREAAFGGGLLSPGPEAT
T1 sequence (Q00653 1-454 partner limits assumed): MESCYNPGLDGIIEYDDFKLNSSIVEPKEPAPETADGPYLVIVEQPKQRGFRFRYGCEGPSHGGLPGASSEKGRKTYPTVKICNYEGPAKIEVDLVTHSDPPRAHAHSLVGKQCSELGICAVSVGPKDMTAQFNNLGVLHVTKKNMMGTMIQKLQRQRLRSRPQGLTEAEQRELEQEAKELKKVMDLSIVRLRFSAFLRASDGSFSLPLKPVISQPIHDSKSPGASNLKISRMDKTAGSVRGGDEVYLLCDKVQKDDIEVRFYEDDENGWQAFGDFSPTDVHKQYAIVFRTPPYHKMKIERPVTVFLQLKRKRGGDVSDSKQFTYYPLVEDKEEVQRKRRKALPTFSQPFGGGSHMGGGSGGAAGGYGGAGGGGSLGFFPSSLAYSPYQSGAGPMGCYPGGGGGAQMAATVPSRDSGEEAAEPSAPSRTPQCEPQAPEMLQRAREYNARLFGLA
Nature of the series: TransAM NF-κB Family DNA Binding ELISA, RelB. To be noted: for inhibition at 5 µM: read-out: RelB binding % inhibit. at 5 uM, at 5 uM.

Series [3] concerns IL-6 release from RAW264.7 cells. Nature of the series: IL-6 release from LPS stimulated RAW264.7 cells. In kind it is cell-based, mouse. Conditions: Mus musculus, RAW264.7, RAW 264.7 cells. Here is the method: Specifically, A and B show the effects of the compound of Example 1 on soluble PGE2 and Il-6 secretion from RAW264.7 cells stimulated by 1 μg/mL of LPS. The cells were treated with the indicated concentrations of the compound of Example 1 for 2 hours, and then LPS was added and incubation continued for 4 hours. […]

Series [4] has as its system NF-κB. Nature of the series: 293-cell pNF-κB-luc reporter assay, TNF-α induced. Type of series: cell-based. Conditions: HEK293 cells, NF-κB driven luciferase expression; read-out: 293/NFkB-luc EC50. Summed up: (§2)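 HEK293 cells with stably integrated NF-κB reporters, pNF-κB-luc (3 elements) or pTRH1-NF-κB-dscGFP (4 elements). Cells pretreated 2 h with 0–40 μM compound, then stimulated with 20 ng/ml TNF-α for 18 h; luminescence or fluorescence read. Activity referenced to 0.5% DMSO control; median of three independent experiments.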
For orientation: A reporter such as luciferase makes a cellular process visible.

The target in another series is T2, p50 (Homo sapiens, UniProt P19838).
T2 sequence (P19838 1-433 limits assumed): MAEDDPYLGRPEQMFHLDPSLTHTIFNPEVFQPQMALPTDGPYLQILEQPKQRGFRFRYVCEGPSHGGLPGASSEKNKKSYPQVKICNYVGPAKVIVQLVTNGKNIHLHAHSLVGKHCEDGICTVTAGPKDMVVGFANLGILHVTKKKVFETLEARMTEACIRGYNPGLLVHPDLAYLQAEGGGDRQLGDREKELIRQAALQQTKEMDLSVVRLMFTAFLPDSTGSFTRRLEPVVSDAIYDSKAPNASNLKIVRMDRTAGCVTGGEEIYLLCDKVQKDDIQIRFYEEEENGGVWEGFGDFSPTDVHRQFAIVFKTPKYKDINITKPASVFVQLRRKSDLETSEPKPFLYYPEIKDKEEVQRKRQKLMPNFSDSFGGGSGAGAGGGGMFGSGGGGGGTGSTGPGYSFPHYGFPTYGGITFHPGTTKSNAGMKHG
The series can be described thus: TransAM NF-κB Family DNA Binding ELISA, p50. To be noted: read-out: p50 binding % inhibit. at 5 uM. (In an ELISA, binding on a coated surface is turned into a signal by an enzyme label.)

For the next series, the target named is p65 (RelA) (Homo sapiens, UniProt Q04206). Nature of the series: TransAM NF-κB Family DNA Binding ELISA, p65. To be noted: p65 binding IC50 (uM), binding to NF-κB sites.
The target of another series is T3, p52 (Homo sapiens, UniProt Q00653).
T3 sequence (Q00653 1-454 limits assumed): T1 sequence (Q00653 1-454 partner limits assumed)
Nature of the series: TransAM NF-κB Family DNA Binding ELISA, p52. Conditions: read-out: p52 binding % inhibit. at 5 uM, at 5 uM.

The test system of series [5] is NF-κB. The series can be described thus: 293-cell pTRH1-NF-κB-dscGFP reporter assay, TNF-α induced. In kind it is cell-based. To be noted: Homo sapiens, HEK293, HEK293 cells, NF-κB driven GFP expression; read-out: NF-kB/293/GFP EC50. Summed up: as §2
Another series addresses T4, c-Rel (Homo sapiens, UniProt Q04864).
T4 sequence (Q04864 2-619 limits assumed): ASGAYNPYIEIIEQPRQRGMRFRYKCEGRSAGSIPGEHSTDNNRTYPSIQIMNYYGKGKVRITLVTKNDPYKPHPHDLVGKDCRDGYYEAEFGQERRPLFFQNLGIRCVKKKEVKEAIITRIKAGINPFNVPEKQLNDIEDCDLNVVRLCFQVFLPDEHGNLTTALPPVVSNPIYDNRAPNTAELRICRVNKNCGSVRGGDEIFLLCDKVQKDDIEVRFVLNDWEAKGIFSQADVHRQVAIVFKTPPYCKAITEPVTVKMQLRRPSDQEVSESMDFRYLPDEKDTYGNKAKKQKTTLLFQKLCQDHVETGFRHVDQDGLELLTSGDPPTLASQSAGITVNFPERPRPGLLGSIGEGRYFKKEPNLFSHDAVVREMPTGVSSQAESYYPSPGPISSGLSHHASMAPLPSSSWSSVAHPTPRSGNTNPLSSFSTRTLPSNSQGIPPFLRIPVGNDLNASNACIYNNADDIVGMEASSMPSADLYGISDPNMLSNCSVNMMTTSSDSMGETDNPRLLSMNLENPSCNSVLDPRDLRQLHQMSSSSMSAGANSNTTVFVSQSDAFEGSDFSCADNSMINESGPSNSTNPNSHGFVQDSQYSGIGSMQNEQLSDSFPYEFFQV
The series can be described thus: TransAM NF-κB Family DNA Binding ELISA, c-Rel. Conditions: read-out: c-Rel binding % inhibit. at 5 uM, at 5 uM.

Series [6] has as its system PGE2 release from RAW264.7 cells. The series can be described thus: PGE2 release from LPS stimulated RAW264.7 cells. Type of series: cell-based, mouse. To be noted: Mus musculus, RAW264.7, RAW 264.7 cells. How it is done: Specifically, A and B show the effects of the compound of Example 1 on soluble PGE2 and Il-6 secretion from RAW264.7 cells stimulated by 1 μg/mL of LPS. The cells were treated with the indicated concentrations of the compound of Example 1 for 2 hours, and then LPS was added and incubation continued for 4 hours.
LPS stimulation induces the expression of COX-2 the enzyme responsible for prostaglandin E2.

Chain of p65 (RelA) (Q04206 whole entry): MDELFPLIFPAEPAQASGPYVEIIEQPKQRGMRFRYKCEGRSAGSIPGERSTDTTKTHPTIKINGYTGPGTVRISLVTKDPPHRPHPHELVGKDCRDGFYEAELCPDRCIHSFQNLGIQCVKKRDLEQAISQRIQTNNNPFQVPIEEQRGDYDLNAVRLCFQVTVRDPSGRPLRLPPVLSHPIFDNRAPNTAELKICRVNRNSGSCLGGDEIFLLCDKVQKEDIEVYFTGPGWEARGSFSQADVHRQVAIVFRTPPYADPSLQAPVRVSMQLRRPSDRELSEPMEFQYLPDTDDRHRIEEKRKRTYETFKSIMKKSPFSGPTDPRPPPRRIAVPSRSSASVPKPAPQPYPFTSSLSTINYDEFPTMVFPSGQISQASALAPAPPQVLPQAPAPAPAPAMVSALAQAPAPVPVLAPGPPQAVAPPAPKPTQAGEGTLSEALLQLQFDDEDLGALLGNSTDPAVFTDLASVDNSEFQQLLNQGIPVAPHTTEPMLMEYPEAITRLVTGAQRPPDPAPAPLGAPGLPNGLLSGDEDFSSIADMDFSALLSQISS
Procedure for p52: (§3) Treated samples were then transferred to 30 μL Complete Binding Buffer (with DTT) in microplate wells pre-coated with the NF-κB consensus oligonucleotide. […] The plate was incubated for 1 hour at room temperature with gentle shaking and then washed 3 times with 200 μL 1× Wash Buffer. NF-κB p65, p50, p52, RelB, or c-Rel subunits bound to the plate were detected with 100 μL of the primary antibody (diluted 1:1000 in 1× Antibody Buffer) specific for that subunit. The plate was incubated for 1 hour at room temperature and then washed 3 times with 200 μL 1× Wash Buffer. Next, 100 μL of a HRP conjugated goat anti-rabbit antibody (diluted 1:1,000 in 1× Antibody Buffer) was added to each well. The plate was incubated for 1 hour at room temperature and then washed 4 times with 200 μL 1× Wash Buffer. 100 μL of room temperature Developing Solution was added to each well. The reaction was allowed to develop for 2-10 minutes until a medium dark blue color developed (depending on the subunit activity in the lot of extract or lot of recombinant protein used) and then the reaction was stopped with 100 μL Stop Solution yielding a yellow color. Absorbance was recorded using a Becton-Dickinson DTX 880 Multimode Detector at 450 nm with a reference wavelength subtracted at 620 nm.
Procedure for p65 (RelA): as §3

As to etanercept [reference compound], the “anti-inflammation effects vs vehicle treated group” value in series [1] (Example 2 15 mg/kg s.c. qd 21-35, etanercept 50 ug/mouse ip qd 21-35, P<0.05) is “statistal significant anti-inflammation effects”. Moreover, the “histological evaluation of joints” value in [1] (day 35) is recorded as “significant reduction of inflammation”. In addition, the myeloperoxidase activities result in series [1] (mouse, in vivo) is given as “concomitant reduction”.
With `O=C(NC1=CC(=O)C2OC2C1O)c1ccccc1O` (stereo not drawn) [DHMEQ, dehydroxymethylepoxyquinomicin, reference compound], in series [2], the “inhibition of cell growth” value is listed as “greater than 60%”. Also, the “concentration at which TNFα induced nuclear accumulation of p65 was significantly blocked” value in the series on RelA/p65 is given as “higher concentration”. For the same compound, the IC50 on RelB (RelB binding to DNA IC50, FIG. 8, non-canonical pathway) is greater than 20 µM.
With `Cc1ccc(C(=O)NC2=CC(=O)C3OC3C2O)c(O)n1` (racemic) [Example 10, (±)-2-hydroxy-N-(2-hydroxy-5-oxo-7-oxa-bicyclo[4.1.0]hept-3-en-3-yl)-6-methyl-nicotinamide], the EC50 in [3] is less than 0.24 µM; in the series with NF-κB [4] it was 19 µM; in the series with NF-κB [5], 4.5 µM; in [6] it was 1.1 µM. In addition, the inhibition at 5 µM amounted to 6% on p50, 11% at p52, 54% at c-Rel and 27% on RelB. Also, the half-inhibitory concentration (IC50) at p65 (RelA) came out at 2.8 µM.
For `O=C(NC1=CC(=O)C2OC2C1O)c1cnc2c(C(F)(F)F)cccc2c1O` (racemic) [Example 6, (±)-4-hydroxy-8-trifluoromethyl-quinoline-3-carboxylic acid-(2-hydroxy-5-oxo-7-oxa-bicyclo[4.1.0]hept-3-en-3-yl)-amide], the EC50 in series [3] came to 0.9 µM; in the series on NF-κB [4] it was 18 µM; in the series on NF-κB [5], 3.4 µM; in series [6] it was 6.2 µM. Besides, the inhibition at 5 µM is 0% at p50, 7% at p52, 27% at c-Rel and 13% on RelB. Also, the IC50 at p65 (RelA) is 3.3 µM.
Regarding `O=C(NC1=CC(=O)C2OC2C1O)c1nc2ccccc2nc1O` (racemic) [Example 9, (±)-3-hydroxy-quinoxaline-2-carboxylic acid (2-hydroxy-5-oxo-7-oxa-bicyclo[4.1.0]hept-3-en-3-yl)-amide], the EC50 was 7.4 µM in series [3], 14 µM with NF-κB [4], 20 µM in the series with NF-κB [5] and 23.6 µM in series [6]. Also, the inhibition at 5 µM was 11% at p50, 22% on p52, 44% at c-Rel and 22% on RelB. In addition, on p65 (RelA), the IC50 amounted to 7.2 µM.

For orientation: IC50 means the concentration that gives 50% inhibition. A low value points to inhibition by little substance.
